“Also recorded” adds a separate entry of the source.
Columns and labels:
[1] = system: cardiomyocytes isolated from hearts of SHAM mice; test: Intracellular Ca2+ transients (Fluo-3, confocal line scan); format: cell-based, mouse
Experimental: Cardiomyocytes were isolated freshly from cardiac ventricles separately from SHAM and HF mice following the protocol developed by the Alliance for Cellular Signalling (AfCS Procedure Protocol ID PP00000125). From each of the 5 SHAM and 3 HF hearts a cell suspension was made and divided into 10 aliquots each, for a total of 50 aliquots from SHAM and 30 aliquots from HF hearts. These aliquots were treated with vehicle, AC01/HM01 or D-Lys3-GHPR-6+AC01/HM01 as stated and used for the subsequent physiological and biochemical experiments.
(§1) AC01/HM01 was suspended in phosphate buffer saline solution (PBS: in mM: NaCl 137, KCl 7, Na2HPO4 10, KH2PO4 […]) and diluted to obtain 3 different concentrations: 0.2, 0.5 or 1 μM in Tyrode solution. We used a concentration range within 0.2-1 μM to ensure that the receptor was activated. […] Prior to contractility and Ca^2+ signaling measurements and biochemical assays, cardiomyocyte suspensions from SHAM and HF hearts were randomized to 3 types of treatments: vehicle, AC01/HM01, or D-Lys3-GHPR-6+AC01/HM01. The treatment with different agents occurred for 15 minutes at room temperature. Some cell suspension aliquots were flash frozen in liquid N2 and stored at −80° C. for later biochemistry analyses. All the experiments were conducted blinded regarding the treatment of cardiomyocytes.
Fresh isolated cardiomyocytes were aliquoted in 1.5 ml tubes and incubated with a cell permeable form of fluorescent Ca2+ indicator Fluo-3 AM followed by washing for >5 min. […] ImageJ software (open source software developed by NIH, Bethesda, USA) was used to quantify changes in fluorescence (Ca2+ transients) and contractility of single cardiomyocytes.
Ca^2+ transients were measured using a confocal microscope (Biorad) in line scan mode. […] The fluorescent signal (F/Fo) was calculated as the ratio between resting fluorescence before the start of the Ca^2+ transient (FO) and the peak fluorescence (F) of the Ca^2+ transient.

[2] = system: phospho (Ser 22-23) cardiac troponin I (cTnl); test: Phospho (Ser 22-23) cTnl western blot in cardiomyocytes; format: cell-based, mouse; conditions: SHAM cardiomyocytes; 1 μM; western blot normalized to total cTnl
Experimental: as §1
Aliquots of frozen cardiomyocyte suspensions were lysed using NP40 buffer (Thermo Fisher FNN0021, Stockholm, Sweden) supplemented with phosphatase inhibitors (Sigma-Aldrich P2850-1ML, P5726-1ML, Stockholm, Sweden). Protein lysates were separated by electrophoresis and transferred onto membranes. Membranes were incubated with primary antibody: rabbit anti phospho (Ser 22-23) cardiac troponin I (cTnl, Cell Signalling, Leiden, The Netherlands #4004S) and rabbit anti-cTnl (Cell Signalling #4002S, Leiden, The Netherlands). Thereafter, infrared-labelled secondary antibodies (IRDye 680 and IRDye 800, 1:5000, Licor) were used. Immunoreactive bands were analyzed using the Odyssey Infrared Imaging System (Li-Cor, Bad Homburg, Germany). Band densities were quantified with Image J (NIH, Bethesda, USA), normalized to total cTnl and final data was expressed as fold increase compared to bands representing protein extracted from vehicle treated cells.

Protein kinase A (PKA) = test: PKA activity assay in cardiomyocytes (ELISA-based kit); format: cell-based, mouse; conditions: isolated cardiomyocytes; 1 μM
Experimental: as §1
Elisa-based PKA kinase activity assay kit (ab139435, Abcam, Cambridge, UK) was employed to determine PKA activity in cardiomyocytes. Aliquots of frozen cardiomyocytes were thawed and mixed with a lysis buffer containing (mM) the following: 20 MOPS, 50 β-glycerolphosphate, 5 EGTA, 2 EDTA, 1 benzamidine, 1 sodium orthovanadate, 1% NP40, 1 DTT, complete protease inhibitor cocktail (Roche Diagnostics, West Sussex, UK) and phosphatase inhibitor cocktail 3 (Sigma, Gillingham, UK). Approximately 2 μg of protein of each sample were assayed according to the manufacturer's instructions 27.

[3] = Phase 1 single ascending dose study, urinary excretion; format: in vivo, human; conditions: 10 mg dose; urine collected 24 hours
Experimental: Blood samples for analytical assay of HM01 and the 3 major metabolites (M2, M6 and M9) were collected at pre-dose (within 60 minutes prior to drug administration), and at 0.25, 0.5, 1, 1.5, 2, 3, 4, 6, 8, 12, 16, 24, 30, 36, 48, 60 and 72 hours post dose (18 samples). Urine was collected for 24 hours after dosing. Blood and urine samples were analyzed for HM01 and its metabolites concentrations using validated LC-MS/MS methods.
Additional parameters were derived from urine, i.e., Ae(0-24), the amount of the parent drug and metabolites excreted in 24 h, and CLR, the renal clearance.

growth hormone (GH) = test: Phase 1 SAD pharmacodynamics, serum GH (ELISA); format: in vivo, human
Experimental: (§2) Blood samples for determination of growth hormone (GH), insulin-like growth factor-1 (IGF-1), adrenocorticotropic hormone (ACTH), prolactin, cortisol and aldosterone in serum at pre-dose and 0.5, 1, 2, 3, 4, 6 and 24 hours post-dose were collected by venous puncture. All biomarkers were determined using enzyme linked immunosorbent assays (ELISA). Simplified nutritional appetite questionnaire based on appetite assessments at Day −1 after dinner, and on Day 1 pre-dose, 1, 2, 4, 8, and 24 hours after dosing. Stool diary starting on Day 1 until discharge on Day 4.

[4] = system: insulin-like growth factor-1 (IGF-1); test: Phase 1 SAD pharmacodynamics, serum IGF-1 (ELISA); format: in vivo, human; conditions: 0.1-10 mg
Experimental: as §2

[5] = Phase 1 SAD, simplified nutritional appetite questionnaire; format: in vivo, human; conditions: 0.1-10 mg
Experimental: as §2

fraction of the dose excreted in the urine [3]: Approximately 10%
Structure (SMILES): COc1ccc([C@H](C)NC(=O)N(C)[C@@H]2CCN(C)CC2(C)C)c(Cl)c1Cl.Cl [AC01/HM01, 1-[(1S)-1-(2,3-dichloro-4-methoxyphenyl)ethyl]-3-methyl-3-[(4R)-1-methyl-3,3-dimethyl-4-piperidyl]-urea]
Ca2+ transient amplitude vs vehicle ([1]; 1 μM, with D-Lys 3 GHRP-6 pretreatment): did not have any impact on Ca^2+ transient amplitudes; also recorded: did not change the Ca^2+ transient amplitude
Ca2+ transient amplitude vs vehicle ([1]; 1 μM, without D-Lys3 pretreatment): did not have any impact on Ca^2+ transient amplitudes; also recorded: did not change the Ca^2+ transient amplitude
Ca2+ transient amplitude vs vehicle ([1]; all tested concentrations (0.2, 0.5, 1 μM)): no significant change in Ca^2+ transient amplitude; also recorded: did not cause alteration of Ca^2+ transient amplitudes
phosphorylation of cTnl (Serine 22-23) vs vehicle [2]: decreased phosphorylation levels; also recorded: reduced the levels of phosphorylation
PKA activity vs vehicle (Protein kinase A (PKA)): decreased; also recorded: reduction of PKA activity
GH increase (growth hormone (GH); 0.3 and 0.1 mg HM01): lower increases
GH increase (growth hormone (GH); 1.0 and 10 mg HM01): higher
mean GH curves, comparison of doses (growth hormone (GH); 1.0 vs 10 mg HM01): similar
time of peak GH concentrations (growth hormone (GH); after single oral administration): 2-3 hours post-dose
concentrations of GH vs baseline (growth hormone (GH); after single oral administration, healthy males): increased from baseline
IGF-1 serum levels, dose groups vs placebo [4]: No relevant differences
appetite questionnaire, dose groups vs placebo [5]: no relevant or consistent differences

Source: US12648941B2, “Piperidine urea derivatives for use as inotropic agents” (Helsinn Healthcare SA, priority 2021, dated 2026)
